Ten molecules from US20240417393A1, “CERTAIN 2,5-DIAZABICYCLO[4.2.0]OCTANES AS GLP-1 RECEPTOR MODULATORS” (ASTRAZENECA AB, priority 2021, published 2024) can be followed below.

The target in assay [1] is T1, GLP-1R in a pancreatic insulinoma cell line (EndoC-PH1) (Homo sapiens, UniProt P43220).
T1 construct: host or cells: EndoC-βH1 human pancreatic beta cell line
Nature of the assay: EndoC cAMP Accumulation Assay (HTRF). It is filed as cell-based. Particulars: EndoC-PH1 human pancreatic beta cell line, endogenous GLP-1R, 30 min at rt. The source says:
EndoC cAMP Accumulation Assay
A HTRF cAMP assay (cAMP Gs dynamic kit; CisoBio Cat #62AM4PEJ) was used to identify agonists of GLP-1R in a pancreatic insulinoma cell line (EndoC-PH1). […] EndoC-PHlcells have detectable GLP-1R messenger ribonucleic acid (mRNA) as detected by quantitative polymerase chain reaction (qPCR). […] The EndoC-PH1 cell line is a valid model of human beta cells and applicable for screenings to identify novel drug target candidates (Mol. Metab., 2018, 8, 144-157). CisBio HTRF cAMP kits are based on a competitive immunoassay using cryptate-labelled anti-cAMP antibody and d2-labeled cAMP. The detection kit is intended for the direct is quantitative determination of cAMP. The specific signal (i.e. energy transfer) is inversely proportional to the concentration of cAMP in the standard or sample. Test compounds (10 mM in DMSO) were diluted into assay buffer (HBSS (Sigma #H8264) supplemented with 25 mM HEPES (Gibco #15630, pH 7.4), 0.1% BSA (Sigma #A3059) and 0.5 mM IBMX (Sigma #I7018) included fresh on the day of the assay) into 96 well U-bottom plates (Greiner #650201). Diluted compounds were transferred to ECHO source polypropelene plates (Labcyte #P-05525) and dose response curves were dispensed acoustically using ECHO 550 into black shallow-well u-bottom 384-well HTRF Assay Plates (Corning 4514). Cryovials of EndoC-H1 (supplied at 1×10e^7 cells/vial) were used directly for screening. The cryovials and were removed from N2(1) and thawed rapidly in a 37° C. water bath. The cells were resuspended in assay buffer and centrifuged at 300 g for 5 min. Cells were resuspended in assay buffer at the appropriate concentration, typically at 12e5 cells per mL (3000 cells per well, dependent on cell batch) and 2.5 μL diluted cells were added to all wells of destination plate by Multidrop combi reagent dispenser (Thermofisher). The plates were incubated at rt for 30 min. The assay was stopped by adding 2.5 μL anti-cAMP cryptate solution to all wells and 2.5 μL cAMP-d2 solution (both diluted 1:20 in lysis buffer) to columns 1-22 by Combi drop. A volume of 2.5 μL cAMP-d2 solution was added to wells E23 to P24 and 2.5 μL lysis buffer added to wells A23 to D24 by multichannel pipette. The plates were incubated at rt for 1 h and read on an Envision plate reader using excitation wavelength of 320 nm and emission of […] and 660 nm.
Raw data from Envision is converted to % DeltaF according to the manufacturer's instructions. Dose response curves are analysed via 4-Parameter Logistical Analysis and assay plate Z’ values obtained. Samples are graphed as percentage (%) activation plots compared to […] with assay window defined by negative control as basal cell is cAMP levels and positive control are defined by maximum GIP (82.5 nM) signal. GLP-1 (7-36 amide, Bachem H-6795) dose response curve was included on all plates.
On the technique in general: In TR-FRET formats the signal depends on donor and acceptor labels being close together.

The target in a further assay is T2, human GLP-1R receptor (Homo sapiens, UniProt P43220, L260F).
T2 construct: expressed in transfected cells; host or cells: CHO-K1 (ATCC CCL-61)
Kind of assay: CHOK1 GLP-1R cAMP Assay (HTRF). Particulars: CHO-K1 cells stably expressing human GLP-1R (Leu260Phe variant), 20 min at rt. It is filed as cell-based. How it is done: A cell line stably expressing the human GLP-1R receptor (NM_002062.5, including the naturally-occurring variant Leu260Phe) in a CHO-K1 (ATCC® CCL-61™) was used for assay.
GLP-1 receptor mediated agonist activity was determined in a cell-based assay measuring cyclic adenosine monophosphate (cAMP) levels in cells using Homogeneous Time-Resolved Fluorescence (HTRF) cAMP detection kit (CisBio catalog #62AM4PEC, cAMP Gs Dynamic range kit). The cAMP detection method is based on a competitive immunoassay, in which cAMP produced by the cells and cAMP labeled with the dye d2 compete for binding to a Europium-Cryptate-labeled anti-cAMP antibody. The specific HTRF signal is inversely proportional to the concentration of cAMP.
Compounds were added to individual well in 384 well-assay plates (Greiner #784076) using an Echo (LabCyte) dispenser from 10 mM stocks. Varying concentration of compounds were added to wells, and DMSO was used to normalize each well to a volume of 100 nL. A dose response curve of GLP-1(7-36)NH2 (Bachem H-6795) was included in each run. 5 μL of cAMP concentration response standards are applied in specified wells in the assay plates. Cryo-preserved cells are thawed and resuspended in assay buffer pre-heated to 37° C. (20 mM 2-[4-(2-hydroxyethyl)piperazin-1-yl]ethanesulfonic acid (HEPES) pH 7.4, 1× Hank's Balanced Salt Solution (HBSS, Life Technologies #14065) supplemented with 0.1% (w/v) bovine serum albumin (Sigma, A-7030)). Cells were centrifuged at 250*g for 5 min at rt, and resuspended in room tempered assay buffer to a final density of 0.16*10^6 cell/mL, to deliver 800 cells/well. 5 μL of assay buffer with 1 mM 3-isobutyl-1-methylxanthin (IBMX; Sigma cat I-7018) was dispensed per well in assay plates using a multidrop combi (Thermo Scientific) subsequently 5 μL of cell suspension was distributed to relevant wells in the assay using a multidrop dispenser. Assay plates were incubated 20 min at rt.
Detection reagents, Europium-Cryptate-labeled anti-cAMP antibody and cAMP labeled with the dye d2, are diluted in lysis buffer, provided by the manufacturer. 5 μL of each detection reagent is supplemented to each assay well using a multidrop dispenser. Assay plates are incubated in the dark for at least one h. The HTRF signal is measured using the HTRF module (excitation: 337 nm, emission A: 665 nm and emission B: 620 nm) in Pherastar FSX (BMG Labtech).
Raw data were converted to pM cAMP using the cAMP standard curve included in each run. Converted data were further analyzed in Genedata Screener (Genedata) and EC50 determinations were made from agonist dose-response curves analyzed with a curve fitting is program using a 4-parameter logistic dose response equation (Equation y=A+((B-A)/1+((C/x)^D))) where A is no stimulation, B is full stimulation, C is the EC50 and D is the Hill slope). The percent effect was determined relative to a saturating concentration of a full GLP-1R agonist (GLP-1(7-36)NH2 has 100% effect in this assay setup).

pEC50: −log10 of the molar value.

As usually defined, the pEC50 is the negative decadic logarithm of the EC50, by convention in mol/L. Lower therefore signals a large EC50.

T2 sequence (P43220 24-463 L260F): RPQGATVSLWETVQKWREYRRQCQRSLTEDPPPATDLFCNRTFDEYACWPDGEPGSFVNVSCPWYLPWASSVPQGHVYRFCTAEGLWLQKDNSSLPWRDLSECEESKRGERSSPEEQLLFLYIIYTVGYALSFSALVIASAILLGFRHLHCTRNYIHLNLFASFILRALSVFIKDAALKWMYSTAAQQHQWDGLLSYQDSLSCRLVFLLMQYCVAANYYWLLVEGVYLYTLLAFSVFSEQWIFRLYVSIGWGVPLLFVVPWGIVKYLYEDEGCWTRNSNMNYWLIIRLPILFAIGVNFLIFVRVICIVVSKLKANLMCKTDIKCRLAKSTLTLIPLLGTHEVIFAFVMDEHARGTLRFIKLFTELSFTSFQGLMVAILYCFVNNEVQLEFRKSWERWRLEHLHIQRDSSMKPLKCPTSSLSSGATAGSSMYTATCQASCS
T1 sequence (P43220 24-463): as the sequence (P43220 24-463 L260F) above, with F237L counted along it

With `COc1cc2nc(CN3CCN(c4cccc5c4OC(C)(c4ccc(Cl)cn4)O5)[C@H]4CC[C@@H]43)n(C[C@@H]3CCO3)c2cc1C(=O)O` (mixture of isomers) [Example 12, 2-(((1RS,6RS)-5-(2-(5-Chloropyridin-2-yl)-2-methylbenzo[d][1,3]dioxol-4-yl)-2,5-diazabicyclo[4.2.0]octan-2-yl)methyl)-5-methoxy-1-(((S)-oxetan-2-yl)methyl)-1H-benzo[d]imidazole-6-carboxylic acid], the pEC50 in assay [1] is 6.49; at human GLP-1R receptor, 6.70.
For `COc1cc(C(=O)O)cc2c1nc(CN1CCN(c3cccc4c3O[C@@](C)(c3ccc(Cl)cn3)O4)[C@H]3CC[C@@H]31)n2CC1(C#N)CC1` (single isomer, unassigned) [Example 25a], the pEC50 was 6.59 in assay [1] and 6.89 at human GLP-1R receptor.
Take `C[C@]1(c2ccc(Cl)cn2)Oc2cccc(N3CCN(Cc4nc5c(Cl)cc(C(=O)O)cc5n4CC4(CC#N)CC4)[C@H]4CC[C@@H]43)c2O1` (single isomer, unassigned) [Example 26b]: the pEC50 in assay [1] was 8.70; at human GLP-1R receptor, 8.82.
Turning to `COc1cc(C(=O)O)cc2c1nc(CN1CCN(c3cccc4c3O[C@@](C)(c3ccc(Cl)cn3)O4)[C@H]3CC[C@@H]31)n2CC1(C#N)CC1` (single isomer, unassigned) [Example 25b], the pEC50 was 8.12 in assay [1] and 8.21 at human GLP-1R receptor.
For the molecule `CC1(c2ccc(Cl)cn2)Oc2cccc(N3CCN(Cc4nc5c(F)cc(C(=O)O)cc5n4CCOC4CC4(F)F)[C@H]4CC[C@@H]43)c2O1` (mixture of isomers) [Example 14, rac-2-(((1R,6R)-5-(2-(5-Chloropyridin-2-yl)-2-methylbenzo[d][1,3]dioxol-4-yl)-2,5-diazabicyclo[4.2.0]octan-2-yl)methyl)-1-(2-(2,2-difluorocyclopropoxy)ethyl)-4-fluoro-1H-benzo[d]imidazole-6-carboxylic acid], the results for the pEC50 (in assay [1]; on human GLP-1R receptor) were 7.42 and 7.35, respectively.
Consider `COc1cc(C(=O)O)cc2c1nc(CN1CCN(c3cccc4c3O[C@@](C)(c3ccc(Cl)cn3)O4)[C@H]3CC[C@@H]31)n2CC1(C#N)CC1` (single isomer, unassigned) [Example 25d], for which the results for the pEC50 (in assay [1]; at human GLP-1R receptor) were 7.13 and 7.44, respectively.
For `C[C@]1(c2ccc(Cl)cn2)Oc2cccc(N3CCN(Cc4nc5c(F)cc(C(=O)O)cc5n4CC4(CC#N)CC4)[C@H]4CC[C@@H]43)c2O1` (single isomer, unassigned) [Example 23d], in that order: 8.12 and 7.96.
Turning to `C[C@]1(c2ccc(Cl)cc2F)Oc2cccc(N3CCN(Cc4nc5ccc(C(=O)O)cc5n4C[C@@H]4CCO4)[C@H]4CC[C@H]43)c2O1` (single isomer, unassigned) [Example 18a, 2-(((1R*,6S*)-5-((R*)-2-(4-Chloro-2-fluorophenyl)-2-methylbenzo[d][1,3]dioxol-4-yl)-2,5-diazabicyclo[4.2.0]octan-2-yl)methyl)-1-(((S)-oxetan-2-yl)methyl)-1H-benzo[d]imidazole-6-carboxylic acid], the values for the pEC50 (in assay [1]; on human GLP-1R receptor) were 8.48 and 9.01, respectively.
With `C[C@]1(c2ccc(Cl)cc2F)Oc2cccc(N3CCN(Cc4nc5ccc(C(=O)O)cc5n4C[C@@H]4CCO4)[C@H]4CC[C@@H]43)c2O1` (single isomer, unassigned) [Example 21a, 2-(((1R*,6R*)-5-((R*)-2-(4-Chloro-2-fluorophenyl)-2-methylbenzo[d][1,3]dioxol-4-yl)-2,5-diazabicyclo[4.2.0]octan-2-yl)methyl)-1-(((S)-oxetan-2-yl)methyl)-1H-benzo[d]imidazole-6-carboxylic acid], the pEC50 in assay [1] is 8.14; at human GLP-1R receptor, 8.15.
For the molecule `C[C@]1(c2ccc(Cl)cc2F)Oc2cccc(N3CCN(Cc4nc5ccc(C(=O)O)cc5n4C[C@@H]4CCO4)[C@H]4CC[C@H]43)c2O1` (single isomer, unassigned) [Example 18c], the negative logarithm of the EC50 (pEC50) in assay [1] was 8.00; at human GLP-1R receptor, 8.24.
